# Experiment: caffeine effect (gPD) parameters of the alertness model for PVT performance
# Assay type: in vivo, human
# Details: beginning model parameter value (standard error)
# Excerpt: In at least one embodiment, the model is as follows: Pc(t)=(S(t)+κC(t))*gPD(t,c) (1) where C and S denote the circadian and homeostatic processes of the two-process model at time t, respectively, and κ represents the circadian amplitude.
# M0, k0, z, and ka denote an amplitude slope, a basal elimination rate, a decay constant, and an absorption rate, respectively.
compound,measurement,setting,value
Cn1c(=O)c2c(ncn2C)n(C)c1=O [caffeine],M0 (amplitude slope),PVT lapse statistic,9.86 (1.80) g^−1
same,Z (decay constant),PVT lapse statistic,1.63 (1.61) g^−1
same,k0 (basal elimination rate),PVT lapse statistic,0.49 (0.17) h^−1
same,M0 (amplitude slope),PVT mean RT statistic,3.59 (0.66) g^−1
same,Z (decay constant),PVT mean RT statistic,1.63 (1.61) g^−1
same,k0 (basal elimination rate),PVT mean RT statistic,0.49 (0.17) h^−1
same,ka (capsule) (absorption rate),PVT lapse statistic,2.06 (0.36) h^−1
same,ka (capsule) (absorption rate),PVT mean RT statistic,2.06 (0.36) h^−1

# From patent US11883194B2, “Method and system for measuring, predicting, and optimizing human cognitive performance” (priority 2015, dated 2024)
